System: mouse liver microsomes, LC-MS/MS, half-life
Assay: Inhibitors of 12-hLO: Mouse Liver Microsome Stability Profiling
Conditions: at 1 µM; active compounds read high
Excerpt: Assay Provider: Holman, T.R., University of California, Santa Cruz Grant #: MH08128301 Screening Center PI: Austin, C.P. Screening Center: NIH Chemical Genomics Center [NCGC] Human lipoxygenase 12hLO is a member of the closely related lipoxygenase family of enzymes which catalyze the site-specific oxidation of arachidonic acid to various hormone precursor molecules and as such is a candidate for drug development in a variety of disease areas, such as cancer and inflammation. After qHTS, hits were confirmed in follow-up assays, and leads were optimized through SAR. The resulting lead compound was further characterized through a battery ADME-Tox experiments. These assay and this assay describes its mouse liver microsome stability. Mouse liver microsomes are created through broken up endoplasmic reticulum from mouse liver. These liver microsomes contain many drug metabolizing enzymes, such as Cytochome P-450s and flavin-containing monooxygenases. Because metabolism is major way of drug clearance, this is an important result.
1uM of compound in incubated in mouse liver microsome; the reference compound is ketanserin. Compounds are incubated at 37 degrees C for different time periods: 0, 5, 15, 30, 45, and 60 minutes. Samples are analyzed with LC-MS/MS.

half-life: 9 min
Structure (SMILES): CC(=O)NC(c1cccs1)c1cc(Br)c2cccnc2c1O (stereo unspecified)

From PubChem BioAssay AID504605 (National Center for Advancing Translational Sciences (NCATS), 2011)
